Experimental findings from BindingDB's records for doi:10.1016/s0960-894x(02)00078-1 (Xenova, 2002) are described below.

In general, IC50 refers to the concentration needed to halve the response being measured. A low value points to greater potency.

Each structure is given as a SMILES string.

In this assay the target is Plasminogen activator inhibitor 1 (Homo sapiens, UniProt P05121). Briefly: ChEBML_222791. The text has this: Inhibitory activity against human plasminogen activator inhibitor-1 (PAI-1) evaluated by chromogenic assay.
Plasminogen activator inhibitor 1, sequence (P05121 whole entry): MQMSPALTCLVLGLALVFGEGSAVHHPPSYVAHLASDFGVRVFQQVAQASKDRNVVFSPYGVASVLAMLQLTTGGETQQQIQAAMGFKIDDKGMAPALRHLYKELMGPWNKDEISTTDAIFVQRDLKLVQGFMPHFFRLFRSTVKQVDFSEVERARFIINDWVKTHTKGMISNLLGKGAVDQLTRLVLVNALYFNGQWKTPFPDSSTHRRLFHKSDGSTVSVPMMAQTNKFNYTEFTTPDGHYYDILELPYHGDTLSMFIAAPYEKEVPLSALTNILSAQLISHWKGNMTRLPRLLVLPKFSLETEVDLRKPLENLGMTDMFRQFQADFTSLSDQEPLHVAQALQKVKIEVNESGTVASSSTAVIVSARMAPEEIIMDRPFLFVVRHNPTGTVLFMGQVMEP
`O=C(O)CCCCCCCOc1ccc(NC(=O)C2C(=O)CN(c3ccccc3Cl)C2=O)cc1` (centres undefined) [8-(4-{[1-(2-Chloro-phenyl)-4-hydroxy-2-oxo-2,5-dihydro-1H-pyrrole-3-carbonyl]-amino}-phenoxy)-octanoic acid] yielded an IC50 of over 50 µM.
In the case of `CC(=O)Nc1ccc(N2CC(=O)C(C(=O)Nc3ccc(OCCCCCCCC(=O)O)cc3)C2=O)cc1` (centres undefined) [8-(4-{[1-(4-Acetylamino-phenyl)-4-hydroxy-2-oxo-2,5-dihydro-1H-pyrrole-3-carbonyl]-amino}-phenoxy)-octanoic acid] it was over 50 µM; in that of `COC(=O)CCCCCCCOc1ccc(NC(=O)C2C(=O)CN(c3ccc(Cl)cc3)C2=O)cc1` (centres undefined) [8-(4-{[1-(4-Chloro-phenyl)-4-hydroxy-2-oxo-2,5-dihydro-1H-pyrrole-3-carbonyl]-amino}-phenoxy)-octanoic acid methyl ester], over 50 µM; in that of `COc1ccccc1N1CC(=O)C(C(=O)Nc2ccc(OCCCCCCCC(=O)O)cc2)C1=O` (centres undefined) [8-(4-{[4-Hydroxy-1-(2-methoxy-phenyl)-2-oxo-2,5-dihydro-1H-pyrrole-3-carbonyl]-amino}-phenoxy)-octanoic acid], over 50 µM.
To `O=C(O)CCCCCCCOc1ccc(NC(=O)C2C(=O)CN(c3ccc(N4CCOCC4)cc3)C2=O)cc1` (centres undefined) [8-(4-{[4-Hydroxy-1-(4-morpholin-4-yl-phenyl)-2-oxo-2,5-dihydro-1H-pyrrole-3-carbonyl]-amino}-phenoxy)-octanoic acid] belongs over 50 µM; to `O=C(O)CCCCCCCOc1ccc(NC(=O)C2C(=O)NC(Cc3ccc(O)cc3)C2=O)cc1` (centres undefined) [8-(4-{[4-Hydroxy-5-(4-hydroxy-benzyl)-2-oxo-2,5-dihydro-1H-pyrrole-3-carbonyl]-amino}-phenoxy)-octanoic acid], over 50 µM.
In the case of `O=C(O)CCCCCCCOc1ccc(NC(=O)C2C(=O)CN(Cc3ccccc3)C2=O)cc1` (centres undefined) [8-{4-[(1-Benzyl-4-hydroxy-2-oxo-2,5-dihydro-1H-pyrrole-3-carbonyl)-amino]-phenoxy}-octanoic acid] it was over 50 µM.
On to `O=C(O)CCCCCCCOc1ccc(NC(=O)C2C(=O)CN(c3cccc4ccccc34)C2=O)cc1` (centres undefined) [8-{4-[(4-Hydroxy-1-naphthalen-1-yl-2-oxo-2,5-dihydro-1H-pyrrole-3-carbonyl)-amino]-phenoxy}-octanoic acid], for which the IC50 is over 50 µM.
Compound `CC1C(=O)C(C(=O)Nc2ccc(OCCCCCCCC(=O)O)cc2)C(=O)N1c1ccccc1` (centres undefined) [8-{4-[(4-Hydroxy-5-methyl-2-oxo-1-phenyl-2,5-dihydro-1H-pyrrole-3-carbonyl)-amino]-phenoxy}-octanoic acid] yielded an IC50 of over 50 µM.
